Results: patent US5693756A, “Amiloride-sensitive sodium channel and method of identifying substances which stimulate or block salty taste perception” (The Johns Hopkins University, priority 1995, dated 1997)

How the values were obtained:
αENAC [1] = target: T1, αENAC (Rattus norvegicus, UniProt P37089); assay: Inhibition by amiloride of [3H]phenamil binding to membranes from HEK-293 cells transfected with native αENAC; conditions: 50 nM [3H]phenamil, 100 μg membrane protein, increasing concentrations of amiloride
T1 construct: alpha subunit transfected alone
T1 sequence (P37089 1-698): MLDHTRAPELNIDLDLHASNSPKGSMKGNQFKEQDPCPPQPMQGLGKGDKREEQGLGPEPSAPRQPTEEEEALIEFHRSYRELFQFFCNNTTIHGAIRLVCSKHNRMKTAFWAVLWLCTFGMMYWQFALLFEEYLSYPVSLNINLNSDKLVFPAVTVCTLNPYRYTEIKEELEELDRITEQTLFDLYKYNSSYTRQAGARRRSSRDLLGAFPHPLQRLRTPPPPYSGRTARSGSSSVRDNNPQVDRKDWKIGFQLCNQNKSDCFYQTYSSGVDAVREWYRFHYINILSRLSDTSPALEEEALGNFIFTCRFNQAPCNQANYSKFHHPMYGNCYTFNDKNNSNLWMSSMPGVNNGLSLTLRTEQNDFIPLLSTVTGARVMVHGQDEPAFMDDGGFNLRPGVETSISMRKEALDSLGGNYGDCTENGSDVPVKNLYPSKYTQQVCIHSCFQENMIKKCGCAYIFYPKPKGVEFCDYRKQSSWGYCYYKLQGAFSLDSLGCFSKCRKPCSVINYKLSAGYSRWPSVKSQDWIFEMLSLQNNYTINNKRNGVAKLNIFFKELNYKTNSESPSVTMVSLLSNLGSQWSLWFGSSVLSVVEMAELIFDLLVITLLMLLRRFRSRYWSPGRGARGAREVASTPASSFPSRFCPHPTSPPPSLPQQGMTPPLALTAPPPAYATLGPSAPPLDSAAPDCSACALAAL
Procedure: (§1) Transfected HEK-293 cells were harvested in cold (4° C.) binding buffer containing 1 mM EDTA, 15 mM Tris-HCl (pH 7.7), 1 μM pepstain A, 0.1 μM aprotinin, 0.1 mM phenylmethylsulfonyl fluoride and 10 μM leupeptin. Cells were then homogenized, centrifuged and the pellet resuspended in the binding buffer at 1-2 mg/ml concentration. The reaction mixture (0.2 ml) containing [^3 H]phenamil ([…]) and 100 μg protein was incubated at 4° C. for 90 minutes and the reaction terminated by rapid filtration through Whatman GF/B glass fiber filters pretreated with 0.3% polyethyleneimine. Amiloride (Sigma) suspended in 50% dimethylformamide was used as a competitor in the binding assay. Proteins was assayed by a kit (Pierce) with bovine serum albumin as a standard.
(§2) Membrane protein (100 μg) was incubated with 50 nM [^3 H]phenamil in the absence or presence of increasing concentrations of amiloride. Three independent experiments were performed in duplicate. Results are presented of a typical experiment with values varying less than 20%.

αENACa [2] = target: T2, αENACa (Rattus norvegicus, UniProt P37089); assay: Inhibition by amiloride of [3H]phenamil binding to membranes from HEK-293 cells transfected with αENACa; conditions: 50 nM [3H]phenamil
T2 construct: expressed in transfected cells
T2 sequence (P37089 with tags, fused parts or gaps limits assumed): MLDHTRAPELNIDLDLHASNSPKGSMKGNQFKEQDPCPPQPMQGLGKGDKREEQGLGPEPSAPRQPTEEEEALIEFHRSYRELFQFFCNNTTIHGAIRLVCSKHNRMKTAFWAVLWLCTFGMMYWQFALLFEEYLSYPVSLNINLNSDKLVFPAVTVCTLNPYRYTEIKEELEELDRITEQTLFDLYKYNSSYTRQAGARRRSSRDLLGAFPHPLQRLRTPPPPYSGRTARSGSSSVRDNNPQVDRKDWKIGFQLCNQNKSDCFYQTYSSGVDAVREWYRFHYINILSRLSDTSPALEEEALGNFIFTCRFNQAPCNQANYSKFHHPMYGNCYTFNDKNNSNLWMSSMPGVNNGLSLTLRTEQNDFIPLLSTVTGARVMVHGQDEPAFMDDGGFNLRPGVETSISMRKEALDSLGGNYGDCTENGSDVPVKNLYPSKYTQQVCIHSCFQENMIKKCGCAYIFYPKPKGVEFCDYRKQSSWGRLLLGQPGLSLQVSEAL
Procedure: as §1, §2

αENAC [3] = target: T1, αENAC; assay: [3H]phenamil binding to membranes from HEK-293 cells transfected with native αENAC
Excerpt: (§3) Amiloride sensitive sodium channels have been extensively characterized in intact tissues by the binding of radioactive ligands. […] To limit variations in expression of individual clones, a pool of stably expressed cells (about 30 clones) that were mixed and propagated 3-4 times were used for the binding assay.
(§4) The full length cDNA of αENAC obtained by screening a rat taste cDNA library as described above (also described by Li et al., 1994, Proc. Natl. Acad. Sci. USA, 91:1814-1818, the disclosure of which is incorporated herein by reference) was cut with Not I and Xho I and inserted into an expression vector pcDNA-III (Invitrogen). The PCR product of the alternatively spliced form αENACa was cut with Bcl I to replace the corresponding region of native αENAC in pcDNA III. Thus the native form (αENAC) and an alternatively spliced form (αENACa) of the alpha subunit of ENAC in the expression vector was constructed for stable expression in HEK-293 cells. DNA (10 μg) was then transfected into HEK-293 cells by the calcium phosphate technique. Stable expression clones of cells were selected by exposure for 4-6 weeks to a medium containing 500 μg/ml G418.
as §1
(§5) [^3 H]phenamil binding in HEK-293 cells transfected with native αENAC or alternatively spliced αENACa are compared in FIGS. 9A and 9B. […]

αENACa [4] = target: T2, αENACa; assay: [3H]phenamil binding to membranes from HEK-293 cells transfected with αENACa
Excerpt: as §3, §4, §1, §5

Row | Structure (SMILES) | inhibition of [3H]phenamil binding (αENAC [1]) | inhibition of [3H]phenamil binding (αENACa [2]; 100 μg membrane protein, increasing concentrations of amiloride, αENACa) | potency in competing for [3H]phenamil binding, αENACa transfected cells relative to native channel (αENACa [2]; αENACa versus native αENAC) | levels of [3H]phenamil binding, versus cells transfected only with the expression vector (αENAC [3]; HEK-293 cells transfected with native αENAC, 50 nM [3H]phenamil, 1 mM amiloride) | Bmax (αENAC [3]; saturation analysis, membranes of HEK-293 cells transfected with αENAC) | Kd (αENAC [3]; saturation analysis, membranes of HEK-293 cells transfected with αENAC, 4° C., 90 minutes) | specific [3H]phenamil binding, versus cells not transfected with the channel (αENACa [4]; HEK-293 cells transfected with αENACa, 50 nM [3H]phenamil, 1 mM amiloride) | Bmax (αENACa [4]; saturation analysis, membranes of HEK-293 cells transfected with αENACa) | Kd (αENACa [4]; saturation analysis, membranes of HEK-293 cells transfected with αENACa, 4° C., 90 minutes, read-out: apparent Kd)
1 | N=C(N)NC(=O)c1nc(Cl)c(N)nc1N [amiloride, N-amidino-3,5-diamino-6-chloropyrazine carboxamide] | inhibited | inhibited | about 10 times | – | – | – | – | – | –
2 | NC(=Nc1ccccc1)NC(=O)c1nc(Cl)c(N)nc1N [[^3 H]phenamil, phenamil] | – | – | – | not significantly greater | 18 pmol/mg protein | 270 nM | doubling | 28 pmol/mg protein | 260 nM
